Test results from EP1060742A1, “INTERSTITIAL ADENOSINE LEVEL-ELEVATING AGENTS” (priority 1998, dated 1999).

Tests used:
[1] = system: cardiomyopathic Syrian hamsters (Bio 14.6 strain); assay: Heart failure and myocardiopathy test in cardiomyopathic hamsters, oral dosing for 87 days; format: in vivo, hamster; conditions: for AST (GOT) level / LDH level: day 30, 60mg/kg/day
Procedure: (§1) Male aged-matched normal healthy golden hamsters (F1B strain) were used as control animals. These hamsters were purchased from Biobreeders Inc. Throughout the test period, the animals were housed in stainless steel cage in a temperature (23 ± 1C° )controlled room where a daily light-dark cycle was maintained artificially at 12 hours intervals. The animals were fed with commercially available pellet (CE-2, CLEA Japan, Inc.) and provided adde libitum with feed pellets and water. Incidentally, after they were purchased, the animals were acclimated to the above environment at least one week before subjected to experiments.
The test compound was suspended in a 0.5% sodium carboxymethyl cellulose (CMC-Na) solution. This dosing solution was orally administered for 87 days at dosages of 30mg/kg/day and 60mg/kg/day and a dose volume of 20ml/kg.
Captopril was used as a control compound. The compound was similarly suspended in a 0.5% CMC-Na solution and was orally administered for 87 days at a dosage of 60mg/kg/day and a dose volume of 20ml/kg.
A group of animals administered with a 0.5% CMC-Na solution served as a vehicle control group. The solution was administered once daily from Monday through Friday but not on Saturdays and Sundays.
(§2) Body weight was recorded on every Monday and Thursday after the administration of the test compound. […]
Blood samples were collected before administration of the test compound, and 45 and 88 days after administration. The blood samples were collected from venous plexus of eyegrounds under anesthesia by ether. Blood plasma was separated from the samples and plasma norepinephrine (NE) levels were measured using a catecholamine assay system.
Myocardial tissue preparations were prepared 88 days after the administration was started. The animals were sacrificed by exsanguination under anesthesia by ether. Chests were opened and hearts extirpated. Weight of the hearts was measured and the hearts were fixed in a 10% buffered neutral formaldehyde solution. Bases of the hearts were sliced to a 3mm thickness and formed into paraffin slices with respect to the side of the base using ordinary methods. The slices were stained with kossa, hematoxylin/eosin (H&E) and H&E/aniline blue stains. The preparations of the hearts so prepared were measured in area for regions of cardiac fibrosis, mineral deposition, myocardial necrosis, and macrophage infiltration, using an image analyzing system (Mac SCOPE Ver.2.1, Mitsuya Shoji).
(§3) Measurements were expressed in mean ± S.E., and tests for significant differences between the respective groups were performed using Dunnett's multiple comparison test.

[2] = system: normal healthy golden hamsters (F1B strain); conditions: hamster, in vivo
Procedure: as §1, with “Male cardiomyopathic Syrian hamsters (Bio 14.6 strain) aged 7 weeks were used. Male” for “Male”, “Incidentally, after they were purchased, the animals were acclimated to the above environment at least one week before subjected to experiments.” left out
as §2
Blood samples were collected before administration of the test compound, and 45 and 88 days after administration. […] Blood plasma was separated from the samples and plasma norepinephrine (NE) levels were measured using a catecholamine assay system.
Myocardial tissue preparations were prepared 88 days after the administration was started. […] Weight of the hearts was measured and the hearts were fixed in a 10% buffered neutral formaldehyde solution. […] The preparations of the hearts so prepared were measured in area for regions of cardiac fibrosis, mineral deposition, myocardial necrosis, and macrophage infiltration, using an image analyzing system (Mac SCOPE Ver.2.1, Mitsuya Shoji). […]

[3] = system: myocardial adenosine level; assay: Effects on myocardial adenosine level in extirpated, Langendorff-perfused rat hearts (HPLC); conditions: 10^-5 M, 15-minute perfusion, compared to vehicle control group (0.04% DMSO)
Procedure: Male Sprange-Dawley rats aged 7 to 8 weeks were used. Hearts were extirpated under anesthesia by pentobarbital (50mg/kg, intra-abdominally injected) and were suspended in a Langendorff's apparatus.
The hearts were then frozen with liquid nitrogen. 10 equivalents of 0.6N perchloric acid were added to the frozen tissue and the tissue was homogenized and neutralized by 1N KOH and was then centrifuged. After centrifugation, the level of adenosine in the supernatant was measured by HPLC.
Propranol was used as a control compound for the test and 0.04% DMSO solution was used as a vehicle control.
as §3

male ICR mice = assay: Toxicity test, subcutaneous administration to mice, observed for one week; format: in vivo
[4] = Toxicity test, oral administration to fasted mice, observed for two weeks, LD50 by the Richfield-Wilcockson method; format: in vivo; conditions: mouse, in vivo, mice, Richfield-Wilcockson method
Procedure: (§4) LD50 was determined using the Richfield-Wilcockson method.

mice = assay: as above; format: in vivo; conditions: 0.025N hydrochloric acid-saline solution, after 16-hour fasting, observed for two weeks
Procedure: as §4

[5] = system: cardiomyopathic Syrian hamsters (Bio 14.6 strain); assay: Heart failure and myocardiopathy test in cardiomyopathic hamsters, oral dosing for 87 days; format: in vivo, hamster; conditions: Bio 14.6 hamsters, 30, 60 and 88 days, all tests other than AST (GOT) and LDH on day 30 at 60mg/kg/day
[6] = Bio 14.6 hamsters, 88 days after administration, 60mg/kg/day, compared to vehicle control group
[7] = Bio 14.6 hamsters, day 88, 60mg/kg/day oral
[8] = Bio 14.6 hamsters, day 88, 60mg/kg/day, image analysis
[9] = Bio 14.6 hamsters, day 88, 30mg/kg/day, image analysis

C[C@H](CS)C(=O)N1CCC[C@H]1C(=O)O [captopril, reference compound]
plasma NE level [1, 6]: The same results were obtained
AST (GOT) level ([1]; Bio 14.6 hamsters): tendency of decrease
LDH level ([1]; Bio 14.6 hamsters): tendency of decrease
relative heart weight [1, 7]: The same results were obtained
area of cardiac lesions [1, 8]: significant decrease in area
area of regions of fibrosis [1, 8]: significant decrease in area
area of regions of macrophage infiltration [1, 8]: significant decrease in area
area of regions of myocardial necrosis [1, 8]: significant decrease in area

COC(=O)C12C(O)C(C(=O)Cc3ccccn3)=NN1C(c1ccccc1)C=CC2c1ccccc1 (centres unmarked) [compound No.1, 2,5-diphenyl-7-hydroxy-6-methoxycarbonyl-8-(2-pyridyl)acetyl-1,9-diazabicyclo[4.3.0]-nona-3,8-dien]
clinical chemistry tests [2]: no effect
myocardial adenosine level [3]: increased three-fold
clinical observations related to treatment (male ICR mice; mouse, in vivo, sc): no clinical observations
mortality (male ICR mice; subcutaneous, 10ml/kg of a 10% aqueous polyethylene glycol 400 solution, observed for one week): no mortality
plasma NE level ([1]; 45 days after administration, each dosage, compared to vehicle control groups, strain not specified in the sentence (Fig.4)): did not have significant effects
plasma NE level [1, 6]: significantly lower level
plasma NE level ([1]; Bio 14.6 hamsters, 88 days after administration, across 30 and 60mg/kg/day): decrease in a dose-dependent manner
AST (GOT) level ([1]; Bio 14.6 hamsters): tendency of decrease
LDH level ([1]; Bio 14.6 hamsters): tendency of decrease
relative heart weight ([1]; Bio 14.6 hamsters, day 88, 30mg/kg/day oral): significant suppression of increase
area of cardiac legions (sum of the areas of necrosis, macrophage infiltration and fibrosis) [1, 9]: significant decrease in area
area of regions of fibrosis [1, 9]: significant decrease in area
area of regions of macrophage infiltration [1, 9]: significant decrease in area
area of regions of myocardial necrosis [1, 9]: significant decrease in area
relative heart weight [1, 7]: significant suppression of increase
area of regions of macrophage infiltration [1, 8]: significant decrease in area
area of regions of myocardial necrosis [1, 8]: significant decrease in area
relative liver weight ([1]; Bio 14.6 hamsters, day 88, oral): did not have effects
changes in body weight ([1]; Bio 14.6 hamsters, each dosage (30mg/kg/day and 60mg/kg/day), oral): did not affect
LD50 at 336 h [4]: > 100 mg/kg
clinical observations (mice): no clinical observations
mortality (mice): no mortality
clinical chemistry tests (all the other tests) [5]: no effect

CC(C)NCC(O)COc1cccc2ccccc12 (centres unmarked) [propranol, reference compound]
myocardial adenosine level [3]: no significant difference
